Results taken from US20170150719A1, “FUNGICIDAL PYRAZOLES AND THEIR MIXTURES” (E I DU PONT DE NEMOURS AND COMPANY, priority 2010, published 2017).
Marks after values point to notes of the source that are not given here.

Columns and labels:
[1] = tested on: Septoria tritici; assay: Test F: wheat leaf blotch, preventive spray on wheat seedlings, visual disease rating; type: in vivo; parameters: Test F rating (disease control), value marked *: concentration or dose not given beside the values; conditions: for Test F rating (disease control), value marked *: rating marked with asterisk (*), other test condition, not explained in the text shown; for pest or weed control at 200 µg/mL: Zymoseptoria tritici; for pest or weed control at 200 µg/mL / Test F rating (% disease control) / Test F rating (disease control): 100 = 100% disease control; for pest or weed control at 200 µg/mL / Test F rating (disease control): 0 = no disease control relative to the controls; for Test F rating (% disease control): preventive spray, rating without asterisk
From the text: (§1) A hyphen (-) indicates no test results.

[2] = tested on: Puccinia recondita f. sp. tritici; assay: Test G: wheat leaf rust, spray after inoculation (curative) on wheat seedlings, visual disease rating; type: in vivo; conditions: for Test G rating (disease control) / pest or weed control at 200 µg/mL / Test G rating (% disease control): 100 = 100% disease control; for Test G rating (disease control) / pest or weed control at 200 µg/mL: 0 = no disease control; for Test G rating (% disease control): spray after inoculation, rating without asterisk
From the text: as §1

[3] = tested on: Puccinia recondita f. sp. tritici; assay: Test H: wheat leaf rust, preventive spray on wheat seedlings, visual disease rating; conditions: for Test H rating (disease control): sprayed the day before inoculation; for Test H rating (disease control) / pest or weed control at 200 µg/mL / Test H rating (% disease control): 100 = 100% disease control; for Test H rating (disease control) / pest or weed control at 200 µg/mL: 0 = no disease control; for pest or weed control at 200 µg/mL: read-out: Test H rating (disease control), wheat leaf rust, sprayed the day before inoculation; for Test H rating (% disease control): preventive spray, rating without asterisk
[4] = tested on: Botrytis cinerea; assay: Test A: tomato Botrytis, preventive spray on tomato seedlings, visual disease rating; conditions: for Test A rating (disease control) / pest or weed control at 200 µg/mL / Test A rating (% disease control): 100 = 100% disease control; for Test A rating (disease control) / pest or weed control at 200 µg/mL: 0 = no disease control relative to the controls; for pest or weed control at 200 µg/mL: Botrytis cinerea, in Solanum lycopersicum, read-out: Test A rating (disease control), tomato Botrytis; for Test A rating (% disease control): preventive spray, 0 = no control relative to controls, rating without asterisk
Method: (§2) General protocol for preparing test suspensions for Tests A-I: the test compounds were first dissolved in acetone in an amount equal to 3% of the final volume and then suspended at the desired concentration (in ppm) in acetone and purified water (50/50 mix by volume) containing 250 ppm of the surfactant Trem® 014 (polyhydric alcohol esters). The resulting test suspensions were then used in Tests A-I. Each test was conducted in triplicate, and the results were averaged. Spraying a 200 ppm test suspension to the point of run-off on the test plants was the equivalent of a rate of about 800 g/ha. Unless otherwise indicated, the rating values indicate a 200 ppm test suspension was used. (An asterisk “*” next to the rating value indicates a 40 ppm test suspension was used.)
The test suspension was sprayed to the point of run-off on tomato seedlings. The following day the seedlings were inoculated with a spore suspension of Botrytis cinerea (the causal agent of tomato Botrytis) and incubated in saturated atmosphere at 20° C. for 48 h, and then moved to a growth chamber at 24° C. for 3 additional days, after which time visual disease ratings were made.

[5] = tested on: Alternaria solani; assay: Test B: tomato early blight, preventive spray on tomato seedlings, visual disease rating; conditions: for Test B rating (disease control) / Test B rating (% disease control): 100 = 100% disease control; for Test B rating (disease control): 0 = no disease control relative to the controls; for pest or weed control at 200 µg/mL: Alternaria solani, in Solanum lycopersicum, read-out: Test B rating (disease control); for Test B rating (% disease control): preventive spray, rating without asterisk
Method: as §2
The test suspension was sprayed to the point of run-off on tomato seedlings. The following day the seedlings were inoculated with a spore suspension of Alternaria solani (the causal agent of tomato early blight) and incubated in a saturated atmosphere at 27° C. for 48 h, and then moved to a growth chamber at 20° C. for 5 days, after which time visual disease ratings were made.

[6] = tested on: Blumeria graminis f. sp. tritici; assay: Test I: wheat powdery mildew, preventive spray on wheat seedlings, visual disease rating; conditions: for Test I rating (disease control) / Test I rating (% disease control) / Test I rating (disease control), value marked *: wheat powdery mildew; for Test I rating (disease control) / pest or weed control at 200 µg/mL / Test I rating (% disease control): 100 = 100% disease control; for Test I rating (disease control) / pest or weed control at 200 µg/mL: 0 = no disease control relative to the controls; for pest or weed control at 200 µg/mL: Blumeria graminis, in Triticum aestivum, read-out: Test I rating (disease control), wheat powdery mildew; for Test I rating (% disease control): preventive spray, rating without asterisk; for Test I rating (disease control), value marked *: rating marked with asterisk (*), not explained in the text shown
[7] = tested on: Septoria nodorum; assay: Test E: Septoria glume blotch, preventive spray on wheat seedlings, visual disease rating; conditions: for Test E rating (disease control) / pest or weed control at 200 µg/mL / Test E rating (% disease control): 100 = 100% disease control; for Test E rating (disease control) / pest or weed control at 200 µg/mL: 0 = no disease control relative to the controls; for pest or weed control at 200 µg/mL: Parastagonospora nodorum, in Triticum aestivum, read-out: Test E rating (disease control), Septoria glume blotch; for Test E rating (% disease control): Septoria glume blotch on wheat, preventive spray, rating without asterisk

Row | SMILES | Test G rating (disease control) ([2]; sprayed after inoculation) [%] | Test H rating (disease control) ([3]; wheat leaf rust) [%] | Test A rating (disease control) ([4]; tomato Botrytis) [%] | Test B rating (disease control) ([5]; tomato early blight) [%] | Test I rating (disease control) [6] [%] | Test E rating (disease control) ([7]; Septoria glume blotch) [%] | Test F rating (disease control) [1] [%] | other results
1 | Cc1nn(C)c(Oc2ccc(C#N)cc2Cl)c1-c1ccc(F)cc1Br [compound 80] | 9 | 99 | 98 | 0 | 99 | 60 |  | Test F rating (disease control), value marked * [1]: 100* %
2 | Cc1nn(C)c(Nc2c(F)cc(Br)cc2F)c1-c1ccc(F)cc1F [Compound 133, N-(4-bromo-2,6-difluorophenyl)-4-(2,4-difluorophenyl)-1,3-dimethyl-1H-pyrazol-5-amine] |  |  |  |  |  |  |  | pest or weed control at 200 µg/mL [1]: 100%; pest or weed control at 200 µg/mL ([2]; sprayed after inoculation): 0%; pest or weed control at 200 µg/mL [3]: 99%; pest or weed control at 200 µg/mL [4]: 99%; pest or weed control at 200 µg/mL [5]: 97%; pest or weed control at 200 µg/mL [6]: 100%; pest or weed control at 200 µg/mL [7]: 88%
3 | Cc1nn(C)c(Nc2c(F)cc(I)cc2F)c1-c1ccc(F)cc1F [compound 216] |  |  |  |  |  |  |  | Test F rating (% disease control) [1]: 100%; Test G rating (% disease control) [2]: 18%; Test H rating (% disease control) ([3]; wheat leaf rust): 95%; Test A rating (% disease control) ([4]; tomato Botrytis): 100%; Test B rating (% disease control) ([5]; tomato early blight): 0%; Test I rating (% disease control) [6]: 99%; Test E rating (% disease control) [7]: 60%
4 | Cc1nn(C)c(Nc2c(Cl)cc(Cl)cc2Cl)c1-c1ccc(F)cc1Br [compound 174] | 0 | 99 | 95 | 0 |  | 0 | 100 | Test I rating (disease control), value marked * [6]: 99* %
5 | CCOc1ccc(-c2c(C)nn(C)c2Nc2c(Cl)cc(F)cc2Cl)c(Cl)c1 [compound 208] |  |  |  |  |  |  |  | Test F rating (% disease control) [1]: 99%; Test G rating (% disease control) [2]: 0%; Test H rating (% disease control) ([3]; wheat leaf rust): 85%; Test A rating (% disease control) ([4]; tomato Botrytis): 18%; Test B rating (% disease control) ([5]; tomato early blight): 0%; Test I rating (% disease control) [6]: 27%; Test E rating (% disease control) [7]: 0%
6 | CCOc1cc(F)c(-c2c(C)nn(C)c2Nc2ccc(F)cc2F)c(F)c1 [compound 39] | 0 | 99 | 99 | 99 | 100 | 98 | 100 | 
7 | Cc1nn(C)c(Nc2c(F)cc(C#N)cc2F)c1-c1c(F)cccc1F [compound 90] | 0 | 98 | 99 | 87 | 99 | 87 | 100 | 
8 | COc1cc(F)c(-c2c(C)nn(C)c2Nc2c(F)cc(F)cc2F)c(F)c1 [Compound 7, 4-(2,6-difluoro-4-methoxyphenyl)-1,3-dimethyl-N-(2,4,6-trifluorophenyl)-1H-pyrazol-5-amine] |  |  |  |  |  |  |  | pest or weed control at 200 µg/mL [1]: 94%; pest or weed control at 200 µg/mL ([2]; sprayed after inoculation): 9%; pest or weed control at 200 µg/mL [3]: 97%; pest or weed control at 200 µg/mL [4]: 98%; pest or weed control at 200 µg/mL [5]: 100%; pest or weed control at 200 µg/mL [6]: 100%; pest or weed control at 200 µg/mL [7]: 0%
9 | Cc1nn(C)c(Oc2ccc(Cl)cc2F)c1-c1ccc(F)cc1Cl [compound 158] |  |  |  |  |  |  |  | Test F rating (disease control), value marked * [1]: 99* %; Test G rating (disease control), value marked * ([2]; sprayed after inoculation, rating marked with asterisk (*), not explained in the text shown): 37* %; Test H rating (disease control), value marked * ([3]; wheat leaf rust, preventive, rating marked with asterisk (*), not explained in the text shown): 98* %; Test A rating (disease control), value marked * ([4]; tomato Botrytis, rating marked with asterisk (*), other test condition, not explained in the text shown): 100* %; Test B rating (disease control), value marked * ([5]; tomato early blight, rating marked with asterisk (*), other test condition, not explained in the text shown): 80* %; Test I rating (disease control), value marked * [6]: 96* %; Test E rating (disease control), value marked * ([7]; Septoria glume blotch, rating marked with asterisk (*), other test condition, not explained in the text shown): 0* %
10 | COc1ccc(-c2c(C)nn(C)c2Oc2ccc(C#N)cc2Cl)c(Br)c1 [compound 99] | 0 | 97 | 99 | 0 | 89 | 0 | 100 | 
11 | COc1ccc(-c2c(C)nn(C)c2Nc2c(F)cc(F)cc2F)c(Cl)c1 [compound 29] | 99 | 99 | 100 | 99 | 100 | 97 | 99 | 
12 | Cc1nn(C)c(Nc2ccc(Br)cc2Cl)c1-c1ccc(F)cc1F [compound 167] | 6 | 92 | 100 | 0 | 98 | 0 | 100 | 
13 | COc1cc(F)c(Nc2c(-c3c(F)cc(F)cc3F)c(C)nn2C)c(F)c1 [compound 19] | 0 | 89 | 99 | 82 | 91 | 0 | 98 | 
14 | Cc1nn(C)c(Nc2ccc(F)cc2F)c1-c1ccc(C#N)cc1Cl [compound 107] | 8 | 100 | 100 | 80 | 97 | 73 | 100 | 
15 | Cc1nn(C)c(Nc2c(Cl)cc(F)cc2Cl)c1-c1ccc(F)cc1F [Compound 137, N-(2,6-dichloro-4-fluorophenyl)-4-(2,4-difluorophenyl)-1,3-dimethyl-1H-pyrazol-5-amine] |  |  |  |  |  |  |  | pest or weed control at 200 µg/mL [1]: 100%; pest or weed control at 200 µg/mL ([2]; sprayed after inoculation): 87%; pest or weed control at 200 µg/mL [3]: 99%; pest or weed control at 200 µg/mL [4]: 100%; pest or weed control at 200 µg/mL [5]: 95%; pest or weed control at 200 µg/mL [6]: 100%; pest or weed control at 200 µg/mL [7]: 87%
16 | Cc1nn(C)c(Nc2c(Cl)cc(Br)cc2Cl)c1-c1ccc(F)cc1Br [compound 168] | 97 | 91 | 0 | 0 | 48 | 0 | 100 | 
17 | Cc1nn(C)c(Nc2c(F)cc(F)cc2Cl)c1-c1ccc(F)cc1F [Compound 117, N-(2-chloro-4,6-difluorophenyl)-4-(2,4-difluorophenyl)-1,3-dimethyl-1H-pyrazol-5-amine] |  |  |  |  |  |  |  | pest or weed control at 200 µg/mL [1]: 100%; pest or weed control at 200 µg/mL ([2]; sprayed after inoculation): 91%; pest or weed control at 200 µg/mL [3]: 100%; pest or weed control at 200 µg/mL [4]: 100%; pest or weed control at 200 µg/mL [5]: 100%; pest or weed control at 200 µg/mL [6]: 100%; pest or weed control at 200 µg/mL [7]: 97%
18 | Cc1nn(C)c(Nc2ccc(F)cc2F)c1-c1ccccc1F [compound 52] | 0 | 60 | 94 | 44 | 98 | 0 | 100 | 
19 | Cc1nn(C)c(Nc2c(F)cc(Cl)cc2F)c1-c1ccc(F)cc1Br [Compound 129, 4-(2-bromo-4-fluorophenyl)-N-(4-chloro-2,6-difluorophenyl)-1,3-dimethyl-1H-pyrazol-5-amine] |  |  |  |  |  |  |  | pest or weed control at 200 µg/mL [1]: 100%; pest or weed control at 200 µg/mL ([2]; sprayed after inoculation): 79%; pest or weed control at 200 µg/mL [3]: 100%; pest or weed control at 200 µg/mL [4]: 100%; pest or weed control at 200 µg/mL [5]: 97%; pest or weed control at 200 µg/mL [6]: 100%; pest or weed control at 200 µg/mL [7]: 95%
